From ChEMBL document CHEMBL1201862, “PubChem BioAssay data set” (2004) come the findings set out here.

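A five-concentration, 48-hour dose response in 96-well plates underlies each endpoint, interpolated linearly between surrounding concentrations. At the GI50, growth is halved.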 Active and inactive are the calls of the source. Rule as the data show it: active = GI50 up to about 1.1 µM and inactive = higher.

What all share (assay): growth of human tumour cells (NCI), 48 h
For assay [1], the system named is TK-10.
Assay [2] has as its system DMS-114.
Assay [3] concerns SF-539.
Assay [4] has as its system SR.
The test system of assay [5] is XF498.
In assay [6] the test system is M14.
The subject of assay [7] is SF-268.
For assay [8], the system named is M19-MEL.
Assay [9] relates to HT-29.
In assay [10] the test system is A498.
Assay [11] concerns T47D.
Assay [12] has as its system PC-3.
The test system of assay [13] is MCF7.
The subject of assay [14] is MDA-MB-231.
Assay [15] has as its system MDA-MB-435.
In assay [16] the test system is NCI/ADR-RES.
In assay [17] the test system is DLD-1.
In assay [18] the test system is DMS-273.

For the compound `O=C(NN1C(=O)C(Cl)C1c1cccc([N+](=O)[O-])c1)c1ccccc1O` (centres undefined), the GI50 in assay [1], in assay [2], in [3], in assay [4], in [5] and in [6] was > 100 µM (inactive) in each case. The GI50 in assay [7], in [8] and in [9] was > 100 µM (inactive) throughout.
Regarding `Cc1ccc(S(=O)(=O)NNC2Oc3cc4c(cc3C(c3ccccc3O)C2C)OCO4)cc1` (centres undefined), the GI50 is 16.8 µM (inactive) in [10]; 12 µM (inactive) in [11]; 15.5 µM (inactive) in [1]; 10.1 µM (inactive) in assay [12]; 14.9 µM (inactive) in assay [13]; 16.9 µM (inactive) in assay [3]. Moreover, the GI50 in assay [4] was 13.3 µM (inactive); in assay [14] it was 16 µM (inactive); in assay [6], 13.4 µM (inactive); in assay [7] it was 14 µM (inactive); in assay [9] it was 14.3 µM (inactive); in assay [15] it was 13 µM (inactive).
In the case of `Cn1c(=O)ccc2c(=O)c3ccccc3oc21`, the GI50 in assay [10], in assay [11], in [1], in assay [12], in assay [3] and in assay [4] was > 100 µM (inactive) in each case. The GI50 in assay [14], in assay [6], in [7], in [16], in assay [9] and in assay [15] was > 100 µM (inactive) throughout.
For `CC(C)C1CN(C(=O)OCc2ccccc2)C2N1C(=O)C2(C)OCc1ccccc1` (centres undefined), the GI50 in assay [10] is 26.8 µM (inactive); in [1] it was 42.9 µM (inactive); in assay [2] it was 31.3 µM (inactive); in assay [17], 36 µM (inactive); in assay [3], 56 µM (inactive); in assay [4] it was 29.2 µM (inactive). For the same compound, the GI50 in assay [5] was 11.7 µM (inactive); in assay [6], 36.1 µM (inactive); in [7] it was 44.6 µM (inactive); in assay [8], 32.4 µM (inactive); in assay [9], 42.2 µM (inactive); in [18], 35.3 µM (inactive).
With `O=C(/C=C/CC(O)(c1ccccc1)c1ccccc1)Nc1ccccc1Cl`, the GI50 in assay [10], in [1], in assay [2], in [17], in assay [4] and in [6] was > 100 µM (inactive) each time. Also, the GI50 in [7], in assay [8] and in assay [9] was > 100 µM (inactive) throughout.
For the compound `NC(CCOCCP(=O)(O)CCC1C=CC=CC1)C(=O)O` (centres undefined), the GI50 in assay [11] is 43.3 µM (inactive); in assay [1] it was > 100 µM (inactive); in [12] it was > 100 µM (inactive); in [13], > 100 µM (inactive); in assay [3], > 100 µM (inactive); in assay [4] it was > 100 µM (inactive). The GI50 in [14], in [6], in assay [7], in [16], in assay [9] and in assay [15] was > 100 µM (inactive) throughout.
Regarding `COc1ccccc1N1C(Cl)C(=O)C1c1c[nH]c2ccccc12` (centres undefined), the GI50 in [1], in assay [2], in assay [3], in assay [4], in [5] and in assay [6] was > 100 µM (inactive) each time. The GI50 in assay [7], in [8] and in assay [9] was > 100 µM (inactive) each time.
On to `CC(C)(CCCCC(C)(C)NC1=NCCO1)NC1=NCCO1`, for which the GI50 in assay [10], in [11], in assay [1], in [12], in assay [13] and in assay [3] was > 10 µM (inactive) throughout. Besides, the GI50 in assay [4], in assay [14], in assay [6], in [7], in assay [16] and in assay [9] was > 10 µM (inactive) each time. In addition, the GI50 in assay [15] was > 10 µM (inactive).
For the compound `O=C1C(=CNC(=S)c2ccccc2)C(=O)c2ccccc21`, the GI50 in assay [11] is 60.1 µM (inactive); in [1], 41.6 µM (inactive); in [12], 63.2 µM (inactive); in assay [13], 35.2 µM (inactive); in assay [3], 58.5 µM (inactive); in assay [14], 55.2 µM (inactive). Further, the GI50 in assay [6] is 65.6 µM (inactive); in [7], 71.8 µM (inactive); in assay [16], 61.5 µM (inactive); in [9], > 100 µM (inactive); in assay [15] it was 71.8 µM (inactive).
With `C=C1C(=O)OC2/C=C(\C)CC/C=C(/C)CC(OC(=O)/C(=C/CO)CO)C12` (centres undefined), the GI50 is > 10 µM (inactive) in assay [10]; > 10 µM (inactive) in assay [11]; 15.7 µM (inactive) in assay [1]; > 100 µM (inactive) in assay [12]; 19.6 µM (inactive) in [13]; 24.5 µM (inactive) in [3]. In addition, the GI50 in [4] is 28.6 µM (inactive); in assay [14] it was > 10 µM (inactive); in [6] it was 18.1 µM (inactive); in assay [7], 26.7 µM (inactive); in [16], 32.6 µM (inactive); in assay [9], 27.2 µM (inactive). In addition, the GI50 in assay [15] was 27.8 µM (inactive).
Turning to `NC1C2C=CC(C2)C1C(=O)O` (centres undefined), the GI50 in assay [10] is > 100 µM (inactive); in assay [11], > 100 µM (inactive); in assay [1] it was > 100 µM (inactive); in [12] it was > 100 µM (inactive); in [13], > 100 µM (inactive); in assay [3], 9.08 µM (inactive). The GI50 in assay [14], in assay [6], in assay [7], in assay [16], in [9] and in assay [15] was > 100 µM (inactive) each time.
For `CC(=O)O[C@H]1[C@@H](OC(C)=O)C(C)(C)/C=C/[C@H](C)C(=O)[C@@]2(OC(C)=O)C[C@@](C)(OC(C)=O)[C@H](OC(C)=O)[C@@H]2[C@H]2OC(=O)CC[C@@]2(OC(=O)c2ccccc2)[C@@H]1OCC(C)C`, the GI50 is 58.5 µM (inactive) in [11]; 3.61 µM (inactive) in assay [1]; 17.5 µM (inactive) in [12]; 37 µM (inactive) in assay [13]; 5.47 µM (inactive) in assay [3]; > 100 µM (inactive) in [14]. The GI50 in [6] is 15.6 µM (inactive); in assay [7], > 100 µM (inactive); in assay [16], 69 µM (inactive); in assay [9] it was 13.5 µM (inactive); in assay [15], 8.39 µM (inactive).
Turning to `O=C1C=CC2(O[C@@H](Cc3ccccc3)[C@H](Cc3ccccc3)O2)C(SC(=O)c2ccccc2)C1` (some centres undefined), the GI50 is 4.93 µM (inactive) in [10]; 0.764 µM (active) in assay [11]; 1.54 µM (inactive) in [1]; 1.53 µM (inactive) in assay [12]; 0.568 µM (active) in [13]; 1.66 µM (inactive) in [3]. Further, the GI50 in [4] was 0.138 µM (active); in [14], 2.52 µM (inactive); in [6], 1.45 µM (inactive); in assay [7], 0.904 µM (active); in assay [16], 1.07 µM (active); in assay [9] it was 1.64 µM (inactive). The GI50 in assay [15] is 2.11 µM (inactive).
As to `CC(=O)NC1CC(C(C)(C)NC(C)=O)CC=C1C` (centres undefined), the GI50 in assay [11], in [1], in assay [12], in assay [13], in [3] and in assay [4] was > 100 µM (inactive) throughout. Moreover, the GI50 in assay [14], in assay [6], in assay [7], in assay [16], in [9] and in [15] was > 100 µM (inactive) throughout.
`O=C1N[C@@H]([C@H](CCCCCO)OC(=O)c2ccccc2)CO1`: the GI50 in assay [10], in [11], in assay [1], in assay [12], in assay [13] and in [3] was > 100 µM (inactive) throughout. Besides, the GI50 in assay [4] is > 100 µM (inactive); in assay [14], 3.18 µM (inactive); in assay [16] it was > 100 µM (inactive); in assay [9], > 100 µM (inactive); in assay [15], > 100 µM (inactive).
On to `[C-]#[N+]C(=C\c1ccc(O)cc1)/C(=C/c1ccc(O)cc1)[N+]#[C-]` [XANTOCILLIN], for which the GI50 in assay [10] was 3.06 µM (inactive); in [11] it was 3.34 µM (inactive); in assay [1], 3.01 µM (inactive); in assay [12] it was 3.65 µM (inactive); in assay [13], 1.55 µM (inactive); in assay [3], 2.97 µM (inactive). In addition, the GI50 is 1.67 µM (inactive) in [4]; 2.74 µM (inactive) in [14]; 2.28 µM (inactive) in assay [6]; 2.96 µM (inactive) in assay [7]; 2.44 µM (inactive) in [16]; 10.9 µM (inactive) in [9]. Further, in [15], the GI50 is 1.28 µM (inactive).
